These results are taken from patent US10562912B2 (C&C Research Laboratories, priority 2013, dated 2020).

Each structure is given as a SMILES string.

Format in all cases: cell-based
One experiment concerns LNCaP. Description: Cell growth inhibition assay, prostate cancer cell line LNCaP (medium with 10 ng/mL IL-6). The note with it: Homo sapiens, medium supplemented with 10 ng/mL of IL-6, 10,000 cells/well.
For another experiment, the target named is T1, STAT3 (Homo sapiens, UniProt P40763).
T1 construct: plasmid pSTAT3-TA-luc), which contains a stably operating STAT3 promoter; endogenous in cells
In words: STAT3 reporter gene assay (luciferase), LNCaP stable cell line (pSTAT3-TA-luc), IL-6 stimulation. The procedure, abridged: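 LNCaP cells stably carrying pSTAT3-TA-luc, in RPMI1640 with 3% DCC-FBS, were treated with compound and then stimulated with 10 ng/mL IL-6 for 24–48 h at 37 °C. Luciferase activity was measured in lysates. A parallel plate measured viability by CellTiter-Glo, with stimulated 0.1% DMSO wells as the positive control.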

For another experiment, the system named is DU-145. Description: Cell growth inhibition assay, prostate cancer cell line DU-145. Conditions: Homo sapiens, DU-145 prostate cancer cell line. The procedure, abridged:
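Seed DU-145/HCT116 3,000 cells/well, SW626 5,000 cells/well; add compound dilution series; incubate 72–96 h, 37° C., 5% CO2; microscope check for precipitate; CellTiter-Glo, luminescence. Blank = no cells; vehicle = 0.1% DMSO.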

T1 sequence (P40763 whole entry): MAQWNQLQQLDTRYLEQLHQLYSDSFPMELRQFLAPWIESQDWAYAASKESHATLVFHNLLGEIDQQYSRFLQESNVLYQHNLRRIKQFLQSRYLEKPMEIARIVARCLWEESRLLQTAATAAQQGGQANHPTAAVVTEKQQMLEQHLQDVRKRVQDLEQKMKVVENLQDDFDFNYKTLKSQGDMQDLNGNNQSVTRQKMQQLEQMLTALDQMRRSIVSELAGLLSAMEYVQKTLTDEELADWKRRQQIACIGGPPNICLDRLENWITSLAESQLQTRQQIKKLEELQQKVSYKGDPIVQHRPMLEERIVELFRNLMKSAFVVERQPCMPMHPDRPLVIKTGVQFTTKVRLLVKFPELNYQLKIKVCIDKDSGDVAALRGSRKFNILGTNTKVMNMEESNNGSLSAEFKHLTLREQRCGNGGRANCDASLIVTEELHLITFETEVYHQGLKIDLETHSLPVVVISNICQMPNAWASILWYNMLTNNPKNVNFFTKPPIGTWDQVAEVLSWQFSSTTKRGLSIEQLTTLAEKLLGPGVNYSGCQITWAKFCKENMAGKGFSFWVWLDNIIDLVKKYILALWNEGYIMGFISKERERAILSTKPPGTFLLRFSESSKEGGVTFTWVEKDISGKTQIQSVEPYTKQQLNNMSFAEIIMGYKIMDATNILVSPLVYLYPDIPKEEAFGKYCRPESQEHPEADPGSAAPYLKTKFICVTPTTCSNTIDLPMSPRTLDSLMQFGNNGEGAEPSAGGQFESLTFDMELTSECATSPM

What is called IC50 is the concentration at which inhibition is half-maximal. A higher IC50 goes with weaker potency. `CC(C)(c1cc(Cl)cc(NC(=O)c2cc3cc(NS(C)(=O)=O)c(Cl)cc3s2)c1)c1ccc(Cl)s1` [Example 175, 6-chloro-N-(3-chloro-5-(2-(5-chlorothiophen-2-yl)propan-2-yl)phenyl)-5-(methylsulfonamido)benzo[b]thiophene-2-carboxamide]: the values for the IC50 with LNCaP, against STAT3 and in the experiment with DU-145 were 0.016 µM, 0.007 µM and 0.005 µM, respectively.
For `COc1sccc1C(C)(C)c1cc(Cl)cc(NC(=O)c2cc3cc(NS(C)(=O)=O)ccc3s2)c1` [Example 176, N-(3-chloro-5-(2-(2-methoxythiophen-3-yl)propan-2-yl)phenyl)-5-(methylsulfonamido)benzo[b]thiophene-2-arboxamide] the same measures were 0.071 µM, 0.036 µM and 0.038 µM.
For `COc1ccc(C(C)(C)c2cc(Cl)cc(NC(=O)c3cc4cc(NS(C)(=O)=O)ccc4s3)c2)s1` [Example 177, N-(3-chloro-5-(2-(5-methoxythiophen-2-yl)propan-2-yl)phenyl)-5-(methylsulfonamido)benzo[b]thiophene-2-carboxamide] the same measures were 0.089 µM, 0.047 µM and 0.058 µM.
Turning to `Cc1ccc(C(C)(C)c2cc(Cl)cc(NC(=O)c3cc4cc(NS(C)(=O)=O)ccc4s3)c2)s1` [Example 178, N-(3-chloro-5-(2-(5-methylthiophen-2-yl)propan-2-yl)phenyl)-5-(methylsulfonamido)benzo[b]thiophene-2-carboxamide], the IC50 amounted to 0.042 µM in the experiment on LNCaP, 0.025 µM on STAT3 and 0.024 µM in the experiment with DU-145.
Consider `Cc1ccc(C(C)(C)c2cc(Cl)cc(NC(=O)c3cc4cc(NS(C)(=O)=O)c(Cl)cc4s3)c2)s1` [Example 179, 6-chloro-N-(3-chloro-5-(2-(5-methylthiophen-2-yl)propan-2-yl)phenyl)-5-(methylsulfonamido)benzo[b]thiophene-2-carboxamide], for which the values for the IC50 in the experiment on LNCaP, at STAT3 and with DU-145 were 0.007 µM, 0.004 µM and 0.004 µM, respectively.
In the case of `CC(C)c1ccc(C(C)(C)c2cc(Cl)cc(NC(=O)c3cc4cc(NS(C)(=O)=O)c(Cl)cc4s3)c2)s1` [Example 180, 6-chloro-N-(3-chloro-5-(2-(5-isopropylthiophen-2-yl)propan-2-yl)phenyl)-5-(methylsulfonamido)benzo[b]thiophene-2-carboxamide], the results for the IC50 in the experiment on LNCaP, on STAT3 and with DU-145 were less than 0.005 µM, 0.01 µM and less than 0.005 µM, respectively.
As for `Cc1csc(C(C)(C)c2cc(Cl)cc(NC(=O)c3cc4cc(NS(C)(=O)=O)c(Cl)cc4s3)c2)c1` [Example 181, 6-chloro-N-(3-chloro-5-(2-(4-methylthiophen-2-yl)propan-2-yl)phenyl)-5-(methylsulfonamido)benzo[b]thiophene-2-carboxamide], the IC50 with LNCaP is 0.006 µM; on STAT3, 0.005 µM; with DU-145, 0.005 µM.
`CC(C)(c1ccc(F)cc1)c1cc(Cl)cc(NC(=O)c2cc3cc(NS(C)(=O)=O)c(Cl)cc3s2)c1` [Example 182, 6-chloro-N-(3-chloro-5-(2-(4-fluorophenyl)propan-2-yl)phenyl)-5-(methylsulfonamido)benzo[b]thiophene-2-carboxamide]: the IC50 is 0.018 µM in the experiment on LNCaP, 0.012 µM at STAT3 and 0.005 µM in the experiment on DU-145.
The like results for `COc1ccc(C(C)(C)c2cc(Cl)cc(NC(=O)c3cc4cc(NS(C)(=O)=O)c(Cl)cc4s3)c2)cc1` [Example 183, 6-chloro-N-(3-chloro-5-(2-(4-methoxyphenyl)propan-2-yl)phenyl)-5-(methylsulfonamido)benzo[b]thiophene-2-carboxamide] were, in that order, 0.013 µM, 0.01 µM and 0.005 µM.
The like results for `CC(C)(c1ccc(Cl)cc1)c1cc(Cl)cc(NC(=O)c2cc3cc(Cl)c(NS(C)(=O)=O)cc3s2)c1` [Example 184, 5-chloro-N-(3-chloro-5-(2-(4-chlorophenyl)propan-2-yl)phenyl)-6-(methylsulfonamido)benzo[b]thiophene-2-carboxamide] were, in that order, 0.35 µM, 0.042 µM and 0.04 µM.
Regarding `COCCS(=O)(=O)Nc1cc2cc(C(=O)Nc3cc(Cl)cc(C(C)(C)c4ccc(Cl)cc4)c3)sc2cc1Cl` [Example 185, 6-chloro-N-(3-chloro-5-(2-(4-chlorophenyl)propan-2-yl)phenyl)-5-((2-methoxyethyl)sulfonamido)benzo[b]thiophene-2-carboxamide], the IC50 amounted to 0.072 µM in the experiment on LNCaP, 0.007 µM on STAT3 and 0.007 µM with DU-145.
Turning to `CC(C)(c1cc(Cl)cc(NC(=O)c2cc3cc(NS(C)(=O)=O)c(Cl)cc3s2)c1)c1ccc(C#N)s1` [Example 186, 6-chloro-N-(3-chloro-5-(2-(5-cyanothiophen-2-yl)propan-2-yl)phenyl)-5-(methylsulfonamido)benzo[b]thiophene-2-carboxamide], the IC50 was determined as 0.039 µM with LNCaP, 0.1 µM against STAT3 and 0.023 µM with DU-145.
The like results for `CCn1cccc1C(C)(C)c1cc(Cl)cc(NC(=O)c2cc3cc(NS(C)(=O)=O)ccc3s2)c1` [Example 187, N-(3-chloro-5-(2-(1-ethyl-1H-pyrrol-2-yl)propan-2-yl)phenyl)-5-(methylsulfonamido)benzo[b]thiophene-2-carboxamide] were, in that order, 0.1 µM, 0.11 µM and 0.042 µM.
In the case of `CC(C)(c1ccc(Cl)cc1)c1cc(Cl)cc(NC(=O)c2cc3cc(NS(=O)(=O)CCO)c(Cl)cc3s2)c1` [Example 188, 6-chloro-N-(3-chloro-5-(2-(4-chlorophenyl)propan-2-yl)phenyl)-5-((2-hydroxyethyl)sulfonamido)benzo[b]thiophene-2-carboxamide], the IC50 in the experiment on LNCaP was determined as 0.056 µM; on STAT3, 0.054 µM; in the experiment on DU-145 it was 0.026 µM.
Turning to `CC(C)(c1ccncc1)c1cc(Cl)cc(NC(=O)c2cc3cc(NS(C)(=O)=O)ccc3s2)c1` [Example 191, N-(3-chloro-5-(2-(pyridin-4-yl)propan-2-yl)phenyl)-5-(methylsulfonamido)benzo[b]thiophene-2-carboxamide], the IC50 was determined as 2.2 µM in the experiment on LNCaP, 0.54 µM against STAT3 and 0.74 µM in the experiment on DU-145.
As for `CC(C)Oc1cc(OC(F)(F)F)cc(C(C)(C)c2cc(Cl)cc(NC(=O)c3cc4cc(OP(=O)(O)O)ccc4s3)c2)c1` [Example 193, 2-((3-chloro-5-(2-(3-isopropoxy-5-(trifluoromethoxy)phenyl)propan-2-yl)phenyl)carbamoyl)benzo[b]thiophen-5-yl dihydrogen phosphate], the half-maximal inhibitory concentration (IC50) was 0.99 µM in the experiment on LNCaP, 0.38 µM against STAT3 and 0.39 µM in the experiment with DU-145.
As for `CC(C)Oc1cc(OC(F)(F)F)cc(C(C)(C)c2cc(Cl)cc(NC(=O)c3cc4cc(NS(=O)(=O)CC5CCCO5)ccc4s3)c2)c1` (stereo not drawn) [Example 197, N-(3-chloro-5-(2-(3-isopropoxy-5-(trifluoromethoxy)phenyl)propan-2-yl)phenyl)-5-(((tetrahydrofuran-2-yl)methyl)sulfonamido)benzo[b]thiophene-2-carboxamide], the IC50 in the experiment on LNCaP amounted to 0.065 µM; on STAT3, 0.012 µM; in the experiment on DU-145, 0.016 µM.
In the case of `CC(C)Oc1cc(OC(F)(F)F)cc(C(C)(C)c2cc(Cl)cc(NC(=O)c3cc4cc(NS(=O)(=O)CC5CCOCC5)ccc4s3)c2)c1` [Example 198, N-(3-chloro-5-(2-(3-isopropoxy-5-(trifluoromethoxy)phenyl)propan-2-yl)phenyl)-5-(((tetrahydro-2H-pyran-4-yl)methyl)sulfonamido)benzo[b]thiophene-2-carboxamide], the results for the IC50 with LNCaP, against STAT3 and in the experiment on DU-145 were 0.046 µM, 0.03 µM and 0.017 µM, respectively.
For `CC(C)Oc1cc(OC(F)(F)F)cc(C(C)(C)c2cc(I)cc(NC(=O)c3cc4cc(NS(C)(=O)=O)ccc4s3)c2)c1` [Example 213, N-(3-iodo-5-(2-(3-isopropoxy-5-(trifluoromethoxy)phenyl)propan-2-yl)phenyl)-5-(methylsulfonamido)benzo[b]thiophene-2-carboxamide] the same measures were 0.025 µM, 0.018 µM and 0.011 µM.
In the case of `CN(c1ccc2sc(C(=O)Nc3cc(Cl)cc(Oc4ccc(Cl)cc4)c3)cc2c1)S(C)(=O)=O` [Example 220, N-(3-chloro-5-(4-chlorophenoxy)phenyl)-5-(N-methylmethylsulfonamido)benzo[b]thiophene-2-carboxamide], the IC50 in the experiment with LNCaP was found to be 0.013 µM; against STAT3 it was 0.012 µM; with DU-145, 0.007 µM.
For the compound `CN(c1ccc2sc(C(=O)Nc3cc(Cl)cc(C(C)(C)c4ccc(Cl)cc4)c3)cc2c1)S(C)(=O)=O` [Example 221, N-(3-chloro-5-(2-(4-chlorophenyl)propan-2-yl)phenyl)-5-(N-methylmethylsulfonamido)benzo[b]thiophene-2-carboxamide], the values for the IC50 in the experiment on LNCaP, against STAT3 and in the experiment with DU-145 were 0.011 µM, 0.011 µM and 0.008 µM, respectively.
Consider `CC(C)Oc1cc(OC(F)(F)F)cc(C(C)(C)c2cc(Cl)cc(NC(=O)C3=Cc4cc(NS(C)(=O)=O)ccc4S3(=O)=O)c2)c1` [Example 222, N-(3-chloro-5-(2-(3-isopropoxy-5-(trifluoromethoxy)phenyl)propan-2-yl)phenyl)-5-(methylsulfonamido)benzo[b]thiophene-2-carboxamide 1,1-dioxide], for which the IC50 in the experiment on LNCaP is greater than 1.1 µM; against STAT3, 6.1 µM; with DU-145, greater than 1.1 µM.
